From patent EP2818471A1, “Nitrogen bicyclic compounds as inhibitors for Scyl1 and Grk5” (Max-Planck-Gesellschaft zur Förderung der Wissenschaften …, priority 2013, dated 2014)

Test system: beta-TC6 cells
Assay: Insulin HTRF assay, relative activity Ar normalized to sunitinib
Assay type: cell-based
Conditions: Mus musculus, normalized to positive control sunitinib (5 µM = 100%), Table 10
Summary of the method: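 Relative activity Ar was scaled between 0% and 100% controls, with sunitinib at 5 µM f.c. as reference. Insulin released by beta-TC6 cells was quantified by sandwich HTRF (Eu-cryptate/XL665 antibodies, 120 min RT). Cells had been seeded 24 or 48 h, then treated 2–4 h at 37°C in induction buffer, 0.5% DMSO.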

Row | SMILES | Emax
1 | COc1cccc(-c2ccc3nnc(-c4cscn4)n3c2)c1 [compound 234, 4-[6-(3-methoxyphenyl)-[1,2,4]triazolo[4,3-a]pyridin-3-yl]thiazole] | 50 to 100%
2 | COc1ccc(-c2ccc3nnc(-c4ccc(OCCCN(C)C)cc4)n3c2)cc1OC [compound 236, 3-[4-[6-(3,4-dimethoxyphenyl)-[1,2,4]triazolo[4,3-a]pyridin-3-yl]phenoxy]-N,N-dimethyl-propan-1-amine] | 50 to 100%
3 | CN(C)CCCOc1ccc(-c2nnc3ccc(-c4ccc(Cl)cc4)cn23)cc1 [compound 237, 3-[4-[6-(4-chlorophenyl)-[1,2,4]triazolo[4,3-a]pyridin-3-yl]phenoxy]-N,N-dimethyl-propan-1-amine] | 20 to 50%
4 | CN(C)CCCOc1ccc(-c2nnc3ccc(C#Cc4ccc(C(=O)N(C)C)cc4)cn23)cc1 [compound 238, 4-[2-[3-[4-[3-(dimethylamino)propoxy]phenyl]-[1,2,4]triazolo[4,3-a]pyridin-6-yl]ethynyl]-N,N-dimethyl-benzamide] | 20 to 50%
5 | COc1cc(C#Cc2ccc3nnc(-c4ccc(OCCCN(C)C)cc4)n3c2)cc(OC)c1 [compound 239, 3-[4-[6-[2-(3,5-dimethoxyphenyl)ethynyl]-[1,2,4]triazolo[4,3-a]pyridin-3-yl]phenoxy]-N,N-dimethyl-propan-1-amine] | 20 to 50%
6 | CNC(=O)c1ccc(-c2ccc3nnc(-c4ccc(OCCCN(C)C)cc4)n3c2)cc1 [compound 240, 4-[3-[4-[3-(dimethylamino)propoxy]phenyl]-[1,2,4]triazolo[4,3-a]pyridin-6-yl]-N-methyl-benzamide] | 20 to 50%
7 | CC(=O)Nc1cccc(-c2ccc3nnc(-c4ccc5nccnc5c4)n3c2)c1 [compound 241, N-[3-(3-quinoxalin-6-yl-[1,2,4]triazolo[4,3-a]pyridin-6-yl)phenyl]acetamide] | 50 to 100%
8 | CN(C)CCNC(=O)c1cccc(-c2ccc3nnc(-c4ccc5nccnc5c4)n3c2)c1 [compound 242, N-(2-dimethylaminoethyl)-3-(3-quinoxalin-6-yl-[1,2,4]triazolo[4,3-a]pyridin-6-yl)benzamide] | ≥ 100%
9 | CN1CCN(C(=O)c2cccc(-c3ccc4nnc(-c5ccc6nccnc6c5)n4c3)c2)CC1 [compound 243, (4-methylpiperazin-1-yl)-[3-(3-quinoxalin-6-yl-[1,2,4]triazolo[4,3-a]pyridin-6-yl)phenyl]methanone] | 20 to 50%
10 | COc1cc(-c2ccc3nnc(-c4ccc5nccnc5c4)n3c2)ccc1O [compound 244, 2-methoxy-4-(3-quinoxalin-6-yl-[1,2,4]triazolo[4,3-a]pyridin-6-yl)phenol] | 50 to 100%
11 | c1cnc2cc(-c3nnc4ccc(-c5ccoc5)cn34)ccc2n1 [compound 245, 6-[6-(3-furyl)-[1,2,4]triazolo[4,3-a]pyridin-3-yl]quinoxaline] | 50 to 100%
12 | CN(C)C(=O)c1cccc(-c2ccc3nnc(-c4ccc5nccnc5c4)n3c2)c1 [compound 246, N,N-dimethyl-3-(3-quinoxalin-6-yl-[1,2,4]triazolo[4,3-a]pyridin-6-yl)benzamide] | 50 to 100%
13 | Oc1cccc(-c2ccc3nnc(-c4ccccn4)n3c2)c1 [compound 247, 3-[3-(2-pyridyl)-[1,2,4]triazolo[4,3-a]pyridin-6-yl]phenol] | 50 to 100%
14 | OCc1cccc(-c2ccc3nnc(-c4ccccn4)n3c2)c1 [compound 248, [3-[3-(2-pyridyl)-[1,2,4]triazolo[4,3-a]pyridin-6-yl]phenyl]methanol] | 20 to 50%
15 | CS(=O)(=O)c1cccc(-c2ccc3nnc(-c4ccccn4)n3c2)c1 [compound 249, 6-(3-methylsulfonylphenyl)-3-(2-pyridyl)-[1,2,4]triazolo[4,3-a]pyridine] | 20 to 50%
16 | COc1ccccc1CC(=O)Nc1cnc2cnc(-c3cccc(Cl)c3Cl)cn12 [compound 250, N-[6-(2,3-dichlorophenyl)imidazo[1,2-a]pyrazin-3-yl]-2-(2-methoxyphenyl)acetamide] | 20 to 50%
17 | COc1cccc(CC(=O)Nc2cnc3cnc(-c4ccccc4CN(C)C)cn23)c1 [compound 252, N-[6-[2-(dimethylaminomethyl)phenyl]imidazo[1,2-a]pyrazin-3-yl]-2-(3-methoxyphenyl)acetamide] | 20 to 50%
18 | CCCC/C=C/c1cn2c(NC(=O)Cc3cccc(OC)c3)cnc2cn1 [compound 253, N-[6-[(E)-hex-1-enyl]imidazo[1,2-a]pyrazin-3-yl]-2-(3-methoxyphenyl)acetamide] | 10 to 20%
19 | COc1cccc(CC(=O)Nc2cnc3cnc(-c4ccc5[nH]ccc5c4)cn23)c1 [compound 254, N-[6-(1H-indol-5-yl)imidazo[1,2-a]pyrazin-3-yl]-2-(3-methoxyphenyl)acetamide] | 10 to 20%
20 | COc1cccc(CC(=O)Nc2cnc3cnc(-c4ccc(Oc5ccccc5)cc4)cn23)c1 [compound 259, 2-(3-methoxyphenyl)-N-[6-(4-phenoxyphenyl)imidazo[1,2-a]pyrazin-3-yl]acetamide] | 10 to 20%
21 | COc1cccc(CC(=O)Nc2cnc3cnc(-c4cccs4)cn23)c1 [compound 260, 2-(3-methoxyphenyl)-N-[6-(2-thienyl)imidazo[1,2-a]pyrazin-3-yl]acetamide] | 20 to 50%

Row | SMILES | Emax
22 | COc1cccc(CC(=O)Nc2cnc3cnc(-c4cnn(C)c4)cn23)c1 [compound 261, 2-(3-methoxyphenyl)-N-[6-(1-methylpyrazol-4-yl)imidazo[1,2-a]pyrazin-3-yl]acetamide] | 10 to 20%
23 | O=C(Nc1cnc2cnc(-c3ccsc3)cn12)c1cccs1 [compound 263, N-[6-(3-thienyl)imidazo[1,2-a]pyrazin-3-yl]thiophene-2-carboxamide] | 20 to 50%
24 | COc1ccccc1-c1cn2c(NC(=O)c3ccccc3)cnc2cn1 [compound 267, N-[6-(2-methoxyphenyl)imidazo[1,2-a]pyrazin-3-yl]benzamide] | 20 to 50%
25 | CN(C)c1cccc(-c2cn3c(NC(=O)c4ccccc4)cnc3cn2)c1 [compound 268, N-[6-[3-(dimethylamino)phenyl]imidazo[1,2-a]pyrazin-3-yl]benzamide] | 50 to 100%
26 | Nc1ccc(-c2cn3c(NC(=O)c4ccccc4)cnc3cn2)cc1 [compound 269, N-[6-(4-aminophenyl)imidazo[1,2-a]pyrazin-3-yl]benzamide] | 20 to 50%
27 | CC(C(=O)Nc1cnc2cnc(-c3ccc4c(c3)OCO4)cn12)c1ccccc1 (stereo not drawn) [compound 270, N-[6-(1,3-benzodioxol-5-yl)imidazo[1,2-a]pyrazin-3-yl]-2-phenyl-propanamide] | 20 to 50%
28 | CC(C(=O)Nc1cnc2cnc(-c3cccc([N+](=O)[O-])c3)cn12)c1ccccc1 (stereo not drawn) [compound 271, N-[6-(3-nitrophenyl)imidazo[1,2-a]pyrazin-3-yl]-2-phenyl-propanamide] | 20 to 50%
29 | O=C(Nc1cnc2cnc(-c3cnn(Cc4ccccc4)c3)cn12)C1CCC1 [compound 273, N-[6-(1-benzylpyrazol-4-yl)imidazo[1,2-a]pyrazin-3-yl]cyclobutanecarboxamide] | 20 to 50%
30 | CC(=O)c1cccc(-c2cn3c(NC(=O)CC4CC4)cnc3cn2)c1 [compound 274, N-[6-(3-acetylphenyl)imidazo[1,2-a]pyrazin-3-yl]-2-cyclopropyl-acetamide] | 20 to 50%
31 | O=C(Nc1cnc2cnc(-c3ccc4ccccc4c3)cn12)C1CCOC1 (stereo not drawn) [compound 275, N-[6-(2-naphthyl)imidazo[1,2-a]pyrazin-3-yl]tetrahydrofuran-3-carboxamide] | 10 to 20%
32 | Nc1cccc(-c2cn3c(NC(=O)Cc4ccc(F)c(F)c4)cnc3cn2)c1 [compound 277, N-[6-(3-aminophenyl)imidazo[1,2-a]pyrazin-3-yl]-2-(3,4-difluorophenyl)acetamide] | 10 to 20%
33 | O=C(Cc1ccsc1)Nc1cnc2cnc(-c3ccccc3F)cn12 [compound 278, N-[6-(2-fluorophenyl)imidazo[1,2-a]pyrazin-3-yl]-2-(3-thienyl)acetamide] | 10 to 20%
34 | COc1cccc(-c2cn3c(NC(=O)Cc4ccsc4)cnc3cn2)c1 [compound 279, N-[6-(3-methoxyphenyl)imidazo[1,2-a]pyrazin-3-yl]-2-(3-thienyl)acetamide] | 20 to 50%
35 | CN(C)CCCOc1ccc(-c2cn3c(-c4ccc(N(C)C)cc4)cnc3cn2)cn1 [compound 281, 4-[6-[6-[3-(dimethylamino)propoxy]-3-pyridyl]imidazo[1,2-a]pyrazin-3-yl]-N,N-dimethyl-aniline] | 50 to 100%
36 | CN(C)c1ccc(-c2cnc3cnc(-c4ccc(NCCN5CCOCC5)nc4)cn23)cc1 [compound 282, 5-[3-(4-dimethylaminophenyl)imidazo[1,2-a]pyrazin-6-yl]-N-(2-morpholinoethyl)pyridin-2-amine] | 50 to 100%
37 | CN(C)c1ccc(-c2cnc3cnc(-c4ccccc4N(C)C)cn23)cc1 [compound 283, 2-[3-(4-dimethylaminophenyl)imidazo[1,2-a]pyrazin-6-yl]-N,N-dimethyl-aniline] | 20 to 50%
38 | CN(C)c1ccc(-c2cnc3cnc(-c4ccc(O)cc4)cn23)cc1 [compound 284, 4-[3-(4-dimethylaminophenyl)imidazo[1,2-a]pyrazin-6-yl]phenol] | 50 to 100%
39 | CN(C)CCCNC(=O)c1ccc(-c2cn3c(-c4ccc(N(C)C)cc4)cnc3cn2)cc1 [compound 285, 4-[3-(4-dimethylaminophenyl)imidazo[1,2-a]pyrazin-6-yl]-N-[3-(dimethylamino)propyl]benzamide] | 50 to 100%
40 | CN(C)c1ccc(-c2cnc3cnc(-c4cccc(C(=O)NCCO)c4)cn23)cc1 [compound 286, 3-[3-(4-dimethylaminophenyl)imidazo[1,2-a]pyrazin-6-yl]-N-(2-hydroxyethyl)benzamide] | 20 to 50%
41 | CN(C)c1ccc(-c2cnc3cnc(-c4ccc(CO)cc4)cn23)cc1 [compound 287, [4-[3-(4-dimethylaminophenyl)imidazo[1,2-a]pyrazin-6-yl]phenyl]methanol] | 50 to 100%
42 | COc1ccc(-c2cn3c(-c4ccc(N(C)C)cc4)cnc3cn2)cn1 [compound 288, 4-[6-(6-methoxy-3-pyridyl)imidazo[1,2-a]pyrazin-3-yl]-N,N-dimethyl-aniline] | 50 to 100%
